Reference: patent US20250368649A1, “TETRAHYDROPYRIDOPYRIMIDINE PAN-KRAS INHIBITORS” (Mirati Therapeutics, Inc., priority 2022, published 2025)

Assays:
KRas G12A = KRas G12A (Homo sapiens, UniProt P01116, G12A); type: binding; settings: single point, 10 nM compound, read-out: Binding to KRas (% inhibition at 10 nM) G12A
ASPC1 cells = experiment: Inhibition of KRas-mediated phosphorylation of ERK (Cisbio HTRF pERK), ASPC1 cells; type: cell-based; settings: Homo sapiens, AsPC-1 cells; for IC50: ASPC1, 3 h, 3 hr compound incubation, Cisbio pERK HTRF; for inhibition at 0.1 µM: ASPC1, single point at 100 nM, 3 hrs compound incubation
KRas WT = KRas WT (Homo sapiens, UniProt P01116); experiment: KRas binding assay (TR-FRET displacement), KRas WT; settings: single point, 10 nM compound
KRas WT, sequence (P01116 1-169 isoform P01116-2): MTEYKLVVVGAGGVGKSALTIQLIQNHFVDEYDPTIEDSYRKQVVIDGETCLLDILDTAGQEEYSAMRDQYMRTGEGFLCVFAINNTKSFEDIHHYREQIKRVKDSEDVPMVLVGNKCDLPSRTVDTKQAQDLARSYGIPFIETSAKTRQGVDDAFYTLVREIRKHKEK

PSN1 cells = experiment: Inhibition of KRas-mediated phosphorylation of ERK (Cisbio HTRF pERK), PSN1 cells; type: cell-based; settings: Homo sapiens, PSN1, 3 h, 3 hour compound incubation, Cisbio pERK HTRF
Method in brief: (§1)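 Cells were seeded on day 1 at 6,000 per well in RPMI containing 10% FBS before compound treatment and phospho-ERK detection.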

A549 cells = experiment: Inhibition of KRas-mediated phosphorylation of ERK (Cisbio HTRF pERK), A549 cells; type: cell-based; settings: Homo sapiens; for IC50: A549, 3 h, 3 hr compound incubation, Cisbio pERK HTRF; for inhibition at 0.1 µM: single point at 100 nM, 3 hrs compound incubation
H358 cells = experiment: Inhibition of KRas-mediated phosphorylation of ERK (Cisbio HTRF pERK), H358 cells; type: cell-based; settings: Homo sapiens; for IC50: NCI-H358, 3 h, 3 hr compound incubation, Cisbio pERK HTRF; for inhibition at 0.1 µM: NCI-H358, single point at 100 nM, 3 hrs compound incubation
KRas G13D = KRas G13D (Homo sapiens, UniProt P01116, G13D); type: binding; settings: single point, 10 nM compound, read-out: Binding to KRas (% inhibition at 10 nM) G13D
KRas G13D, sequence (P01116 1-169 isoform P01116-2 G13D): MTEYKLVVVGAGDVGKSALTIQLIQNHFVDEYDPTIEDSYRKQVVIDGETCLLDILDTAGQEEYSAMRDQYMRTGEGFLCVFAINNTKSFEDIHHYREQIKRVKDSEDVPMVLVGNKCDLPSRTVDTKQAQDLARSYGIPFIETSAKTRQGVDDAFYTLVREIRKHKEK

KRas G12V = KRas G12V (Homo sapiens, UniProt P01116, G12V); experiment: biochemical; settings: Binding to KRas (IC50 nM) G12V, TR-FRET displacement, KRas G12V
KRas G12V, sequence (P01116 1-169 isoform P01116-2 G12V): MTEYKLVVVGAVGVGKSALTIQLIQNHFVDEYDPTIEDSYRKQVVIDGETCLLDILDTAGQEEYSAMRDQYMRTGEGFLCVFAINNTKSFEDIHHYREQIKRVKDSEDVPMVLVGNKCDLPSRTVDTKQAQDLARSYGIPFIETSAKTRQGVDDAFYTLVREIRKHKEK

KRas G12S = KRas G12S (Homo sapiens, UniProt P01116, G12S); type: binding; settings: single point, 10 nM compound, read-out: Binding to KRas (% inhibition at 10 nM) G12S
KRas G12S, sequence (P01116 1-169 isoform P01116-2 G12S): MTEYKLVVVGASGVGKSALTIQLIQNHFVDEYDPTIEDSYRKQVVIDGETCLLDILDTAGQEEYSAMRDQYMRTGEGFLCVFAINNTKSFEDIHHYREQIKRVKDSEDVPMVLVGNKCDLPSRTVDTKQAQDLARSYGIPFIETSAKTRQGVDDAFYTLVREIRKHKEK

H460 cells = experiment: Inhibition of KRas-mediated phosphorylation of ERK (Cisbio HTRF pERK), H460 cells; type: cell-based; settings: Homo sapiens; for IC50: NCI-H460, 3 h, 3 hr compound incubation, Cisbio pERK HTRF; for inhibition at 0.1 µM: NCI-H460, single point at 100 nM, 3 hrs compound incubation
KRas G12R = KRas G12R (Homo sapiens, UniProt P01116, G12R); experiment: biochemical; settings: Binding to KRas (IC50 nM) G12R, TR-FRET displacement, KRas G12R
KRas G12R, sequence (P01116 1-169 isoform P01116-2 G12R): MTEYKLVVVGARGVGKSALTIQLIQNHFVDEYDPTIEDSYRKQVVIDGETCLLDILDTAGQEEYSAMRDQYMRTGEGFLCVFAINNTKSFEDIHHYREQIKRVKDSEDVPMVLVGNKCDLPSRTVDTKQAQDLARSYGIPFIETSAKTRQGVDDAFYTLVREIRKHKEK

KRas Q61H = KRas Q61H (Homo sapiens, UniProt P01116, Q61H); experiment: KRas binding assay (TR-FRET displacement), KRas Q61H; settings: single point, 10 nM compound
KRas Q61H, sequence (P01116 1-169 isoform P01116-2 Q61H): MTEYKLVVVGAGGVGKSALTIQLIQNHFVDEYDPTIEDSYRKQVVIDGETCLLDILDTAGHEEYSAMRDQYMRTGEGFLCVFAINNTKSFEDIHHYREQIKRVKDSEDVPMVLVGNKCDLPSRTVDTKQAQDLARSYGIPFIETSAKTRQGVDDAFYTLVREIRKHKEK

MKN1 cells = experiment: Inhibition of KRas-mediated phosphorylation of ERK (Cisbio HTRF pERK), MKN1 cells; type: cell-based; settings: Homo sapiens, MKN-1, 3 hour compound incubation, Cisbio pERK HTRF
Method in brief: as §1

HCT116 cells = experiment: Inhibition of KRas-mediated phosphorylation of ERK (Cisbio HTRF pERK), HCT116 cells; type: cell-based; settings: Homo sapiens; for IC50: HCT-116, 3 h, 3 hr compound incubation, Cisbio pERK HTRF; for inhibition at 0.1 µM: HCT-116, single point at 100 nM, 3 hrs compound incubation
KRas G12D = KRas G12D (Homo sapiens, UniProt P01116, G12D); experiment: biochemical; settings: Binding to KRas (IC50 nM) G12D, TR-FRET displacement, KRas G12D
KRas G12D, sequence (P01116 1-169 isoform P01116-2 G12D): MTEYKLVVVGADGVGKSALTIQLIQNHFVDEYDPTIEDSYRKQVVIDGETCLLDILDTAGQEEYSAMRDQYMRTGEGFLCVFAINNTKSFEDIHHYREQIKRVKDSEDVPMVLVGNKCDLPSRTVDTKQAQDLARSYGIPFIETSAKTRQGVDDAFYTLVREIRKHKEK

KRas G12C = KRas G12C (Homo sapiens, UniProt P01116, G12C); type: binding; settings: single point, 10 nM compound, read-out: Binding to KRas (% inhibition at 10 nM) G12C
KRas G12C, sequence (P01116 1-169 isoform P01116-2 G12C): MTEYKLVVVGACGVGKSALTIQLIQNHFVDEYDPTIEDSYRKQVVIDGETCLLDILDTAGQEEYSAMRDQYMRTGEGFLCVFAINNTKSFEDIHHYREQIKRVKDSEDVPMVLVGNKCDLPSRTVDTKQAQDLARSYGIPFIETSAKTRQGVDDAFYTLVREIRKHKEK

H727 cells = experiment: Inhibition of KRas-mediated phosphorylation of ERK (Cisbio HTRF pERK), H727 cells; type: cell-based; settings: Homo sapiens; for IC50: NCI-H727, 3 h, 3 hr compound incubation, Cisbio pERK HTRF; for inhibition at 0.1 µM: NCI-H727, single point at 100 nM, 3 hrs compound incubation

KRas G12A, sequence (P01116 1-169 isoform P01116-2 G12A): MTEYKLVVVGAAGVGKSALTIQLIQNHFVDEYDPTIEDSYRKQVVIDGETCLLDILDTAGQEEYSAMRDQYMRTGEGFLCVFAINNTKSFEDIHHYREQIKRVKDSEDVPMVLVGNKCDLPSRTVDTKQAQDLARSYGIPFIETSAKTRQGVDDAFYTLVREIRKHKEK

Row | Structure (SMILES) | inhibition at 0.01 µM (KRas G12A) [%] | IC50 (ASPC1 cells) [nM] | inhibition at 0.1 µM (ASPC1 cells) [%] | inhibition at 0.01 µM (KRas WT) [%] | IC50 (PSN1 cells) [nM] | IC50 (A549 cells) [nM] | IC50 (H358 cells) [nM] | inhibition at 0.01 µM (KRas G13D) [%] | IC50 (KRas G12V) [nM] | inhibition at 0.01 µM (KRas G12S) [%] | IC50 (H460 cells) [nM] | inhibition at 0.1 µM (H460 cells) [%] | IC50 (KRas G12R) [nM] | inhibition at 0.01 µM (KRas Q61H) [%] | IC50 (MKN1 cells) [nM] | IC50 (HCT116 cells) [nM] | inhibition at 0.1 µM (HCT116 cells) [%] | IC50 (KRas G12D) [nM] | inhibition at 0.01 µM (KRas G12C) [%] | IC50 (H727 cells) [nM] | also measured
1 | CCc1c(F)ccc2cc(O)cc(N3CCc4c(nc(OC[C@@]56CCCN5C[C@H](F)C6)nc4N4CCCn5nc(C(=O)N6C7CCC6CC7)cc5C4)C3)c12 [Example 340, 7-azabicyclo[2.2.1]heptan-7-yl(5-(7-(8-ethyl-7-fluoro-3-hydroxynaphthalen-1-yl)-2-(((2R,7aS)-2-fluorohexahydro-1H-pyrrolizin-7a-yl)methoxy)-5,6,7,8-tetrahydropyrido[3,4-d]pyrimidin-4-yl)-5,6,7,8-tetrahydro-4H-pyrazolo[1,5-a][1,4]diazepin-2-yl)methanone] | 97 | 8 | 96 | 94 | 2510 | 11 | 3 | 94 | < 2 | 99 | 31 | 69 | < 2 | 97 | 7.5 | 110 | 32 | < 2 | 98 | 4 | inhibition at 0.1 µM (A549 cells): 82%; inhibition at 0.1 µM (H358 cells): 96%; inhibition at 0.1 µM (H727 cells): 80%
2 | CCc1c(F)ccc2cc(O)cc(N3CCc4c(nc(OC[C@@]56CCCN5C[C@H](F)C6)nc4N4CCCn5nc(C(=O)N6C7CCCC6CC7)cc5C4)C3)c12 [Example 341, 8-azabicyclo[3.2.1]octan-8-yl(5-(7-(8-ethyl-7-fluoro-3-hydroxynaphthalen-1-yl)-2-(((2R,7aS)-2-fluorohexahydro-1H-pyrrolizin-7a-yl)methoxy)-5,6,7,8-tetrahydropyrido[3,4-d]pyrimidin-4-yl)-5,6,7,8-tetrahydro-4H-pyrazolo[1,5-a][1,4]diazepin-2-yl)methanone] | 87 | 8 | 95 | 93 | 4530 | 19 | 3 | 92 | < 2 | 96 | 42 | 77 | 2 | 95 | 6.7 | 141 | 47 | 2 | 97 | 9 | inhibition at 0.1 µM (A549 cells): 75%; inhibition at 0.1 µM (H358 cells): 91%; inhibition at 0.1 µM (H727 cells): 76%
3 | CCc1c(F)ccc2cc(O)cc(N3CCc4c(nc(OC[C@@]56CCCN5C[C@H](F)C6)nc4N4CCCn5nc(C(=O)N6CC7CC6C7)cc5C4)C3)c12 [Example 342, 2-azabicyclo[2.1.1]hexan-2-yl(5-(7-(8-ethyl-7-fluoro-3-hydroxynaphthalen-1-yl)-2-(((2R,7aS)-2-fluorohexahydro-1H-pyrrolizin-7a-yl)methoxy)-5,6,7,8-tetrahydropyrido[3,4-d]pyrimidin-4-yl)-5,6,7,8-tetrahydro-4H-pyrazolo[1,5-a][1,4]diazepin-2-yl)methanone] | 96 | 2 | 96 | 96 | 2400 | 8 | 2 | 96 | < 2 | 99 | 23 | 86 | < 2 | 96 | 3.9 | 74 | 59 | < 2 | 99 | 4 | inhibition at 0.1 µM (A549 cells): 87%; inhibition at 0.1 µM (H358 cells): 100%; inhibition at 0.1 µM (H727 cells): 80%
4 | CCc1c(F)ccc2cc(O)cc(N3CCc4c(nc(OC[C@@]56CCCN5C[C@H](F)C6)nc4N4CCCn5nc(C(=O)N6CCC7CC76)cc5C4)C3)c12 (stereo partly drawn) [Example 344, 2-azabicyclo[3.1.0]hexan-2-yl(5-(7-(8-ethyl-7-fluoro-3-hydroxynaphthalen-1-yl)-2-(((2R,7aS)-2-fluorohexahydro-1H-pyrrolizin-7a-yl)methoxy)-5,6,7,8-tetrahydropyrido[3,4-d]pyrimidin-4-yl)-5,6,7,8-tetrahydro-4H-pyrazolo[1,5-a][1,4]diazepin-2-yl)methanone] | 97 | 2 |  | 97 | 2030 | 7 | 2 | 96 | < 2 | 99 | 24 | 88 | < 2 | 97 | 4.1 | 55 | 57 | < 2 | 99 | 3 | inhibition at 0.1 µM (A549 cells): 85%; inhibition at 0.1 µM (H358 cells): 97%
5 | CCc1c(F)ccc2cc(O)cc(N3CCc4c(nc(OC[C@@]56CCCN5C[C@H](F)C6)nc4N4CCCCn5nc(C(=O)N(C)C)cc5C4)C3)c12 [Example 349, 5-(7-(8-ethyl-7-fluoro-3-hydroxynaphthalen-1-yl)-2-(((2R,7aS)-2-fluorohexahydro-1H-pyrrolizin-7a-yl)methoxy)-5,6,7,8-tetrahydropyrido[3,4-d]pyrimidin-4-yl)-N,N-dimethyl-4,5,6,7,8,9-hexahydropyrazolo[1,5-a][1,4]diazocine-2-carboxamide] | 96 | 8 | 96 | 96 | 862 | 6 | 2 | 96 | < 2 | 99 | 24 | 84 | < 2 | 98 | 3.9 | 74 | 47 | < 2 | 99 | 2 | inhibition at 0.1 µM (A549 cells): 75%; inhibition at 0.1 µM (H358 cells): 101%; inhibition at 0.1 µM (H727 cells): 86%
6 | CCc1c(F)ccc2cc(O)cc(N3CCc4c(nc(OC[C@@]56CCCN5C[C@H](F)C6)nc4N4CCCn5nc(N)c(Cl)c5C4)C3)c12 [Example 358, 4-(4-(2-amino-3-chloro-7,8-dihydro-4H-pyrazolo[1,5-a][1,4]diazepin-5(6H)-yl)-2-(((2R,7aS)-2-fluorohexahydro-1H-pyrrolizin-7a-yl)methoxy)-5,6-dihydropyrido[3,4-d]pyrimidin-7(8H)-yl)-5-ethyl-6-fluoronaphthalen-2-ol] | 93 | 4 | 95 | 94 | 7400 | 10 | 4 | 94 | < 2 | 99 | 25 | 90 | < 2 | 95 | 20.6 | 111 | 50 | < 2 | 99 | 16 | inhibition at 0.1 µM (H727 cells): 72%
